This note sets out measurements from article PMC3121703, “Inhibitory activity of 9-phenylcyclohepta[d]pyrimidinedione derivatives against different strains of HIV-1 as non-nucleoside reverse transcriptase inhibitors” (Virology Journal, 2011).

Read-outs that look alike come from different tables or passages of the source.

Series [1] deals with HIV-1 SF33. Description: HIV-1 inhibition assay, PBMCs, p24 ELISA. It counts as cell-based. Particulars: for IC50: Human immunodeficiency virus 1, PBMC. The method, then: (§1) The inhibitory activity of BmPCP, APCP, BPCP and EPCP on infection by laboratory-adapted HIV-1 strains was tested in TZM-bl cells, MT4 cells or PBMCs, respectively, as previously described. TZM-bl cells were seeded at 10^4/well and cultured in a 96-well tissue culture plate overnight, followed by addition of 200 TCID50 (50% Tissue Culture Infective Dose) of HIV-1 virus. After incubation at 37°C for 2 hrs, BmPCP at graded concentrations was added. After further incubation at 37°C for 48 hrs, the luciferase activity was measured using a luciferase assay kit (Promega Corp.) according to the manufacturer's instructions. MT4 cells (4 × 10^4/well) and PBMCs (1 × 10^5/well) were infected by addition of 200 TCID50 of HIV-1 virus, followed by incubation for 2 hrs at 37°C before addition of BmPCP at serial dilutions. After further incubation at 37°C for 4 days (for MT4 cells) or 7 days (for PBMCs), HIV-1 p24 was measured using a commercial enzyme-linked immunosorbent assay (ELISA) kit (Vironostika HIV-1 Microelisa system; BioMérieux; Marcy l'Etoile, France). The inhibitory activity of BmPCP on infection by primary HIV-1 isolates was also tested in PBMCs as described above. The percent of inhibition and the IC50 were calculated as previously described.
(In an ELISA, binding on a coated surface is turned into a signal by an enzyme label.)

Series [2] concerns HIV-1 XJ257. Description: Primary HIV-1 isolate inhibition in PBMCs. It counts as cell-based. Particulars: primary isolate XJ257, subtype B'/C, R5, PBMCs; for IC50: Human immunodeficiency virus 1, PBMC. The method, then:
(§2) HIV-1CRF07_BC and B' (Thailand B, a kind variant of subtype B) are two epidemic strains in China. Furthermore, to verify the antiviral activity on China clinical isolates, CRF07_BC and B' were chosen.
as §1

The subject of series [3] is HIV-1 AH259. Briefly: Primary HIV-1 isolate inhibition in PBMCs. Particulars: primary isolate AH259, subtype B', R5, PBMCs; for IC50: Human immunodeficiency virus 1, PBMC. It counts as cell-based. The method, then: as §2, §1
Series [4] relates to HIV-1 XJ6291. Briefly: Primary HIV-1 isolate inhibition in PBMCs. It is filed as cell-based. As to conditions: for IC50: Human immunodeficiency virus 1, PBMC. The method, then: as §2, §1
In series [5] the test system is HIV-1 AH968. Description: Primary HIV-1 isolate inhibition in PBMCs. Particulars: primary isolate AH968, subtype B', R5, PBMCs; for IC50: Human immunodeficiency virus 1, PBMC. It is filed as cell-based. The method, then: as §2, §1
Series [6] concerns HIV-1 XJ0793. Briefly: Primary HIV-1 isolate inhibition in PBMCs. It counts as cell-based. As to conditions: primary isolate XJ0793, subtype B'/C, R5, PBMCs; for IC50: Human immunodeficiency virus 1, PBMC. The method, then:
as §2, §1

For series [7], the system named is HIV-1 AH104. Briefly: Primary HIV-1 isolate inhibition in PBMCs. It counts as cell-based. Particulars: Human immunodeficiency virus 1, PBMC; primary isolate AH104, subtype B', X4/R5, PBMCs. The method, then: as §2, §1
Series [8] has as its system HIV-1 1617-1. Description: microbe, parasite or virus in culture. It counts as cell-based. The method, then:
We tested the antiviral activity of BmPCP in three cells including peripheral blood mononuclear cells (PBMCs), TZM-b1 and MT4 cells by using HIV-1SF33 and HIV-1 1617-1, a variant bearing K70G, 184V, 75I, 77L, I16Y and I51M mutations, which are resistant to NRTIs (e.g., d4T, DDI and AZT).
as §1

In series [9] the test system is HIV-1SF33. Briefly: Time-of-addition assay. It counts as cell-based. Particulars: for Antiviral activity in time-of-addition assay: added eight hours post-infection, BmPCP 13.3 μM, NVP 5 μM. The method, then:
Figure 2 Time-of-addition assay of compounds. TZM-bl cells were infected with HIV-1SF33 at 200 TCID50.
MT4 cells were seeded at 10^4/well and cultured in a 96-well tissue culture plate overnight, followed by addition of 200 TCID50 of HIV-1SF33. […] HIV-1 p24 was measured using a commercial enzyme-linked immunosorbent assay (ELISA) kit (Vironostika HIV-1 Microelisa system; BioMérieux; Marcy l'Etoile, France).

In series [10] the test system is HIV-1 SF33. Briefly: HIV-1 inhibition assay, TZM-bl cells, luciferase. As to conditions: for IC50: Human immunodeficiency virus 1. It counts as cell-based. The method, then: as §1
Series [11] relates to HIV-1 SF33. Description: HIV-1 inhibition assay, MT4 cells, p24 ELISA. It counts as cell-based. Particulars: for IC50: Human immunodeficiency virus 1. The method, then: as §1
Series [12] is described as follows: XTT cytotoxicity assay. It is filed as cell-based. As to conditions: human. The method, then: (§3) XTT assay was used to test the cytotoxicity of BmPCP on MT4 cells, human PBMCs (non-stimulated) and TZM-bl cells.
(§4) An XTT assay, as previously described, was used for assessing the cytotoxicity of BmPCP to the cells tested for anti-HIV-1 activity. Briefly, BmPCP at graded concentrations was added to MT4 cells, PBMCs, and TZM-bl cells at 4 × 10^4, 1 × 10^5 and 1 × 10^4 cells per well, respectively, followed by an incubation at 37°C for 3 days. Ten microliters of CCK-8 reagent was added to the cells. After incubation at 37°C, for 4 h to allow color development of the XTT formazan product, the absorbance of each well was then read at 450 nm in a Victor2 1420 Multilabel Counter (Wallace-PerkinElmer Life and Analytical Sciences Inc., Boston, MA). The percent of cytotoxicity and CC50 were calculated as previously described.

The subject of series [13] is HIV-1. Briefly: HIV-1 inhibition assays, summary over strains and cells. It is filed as cell-based. As to conditions: broad spectrum of HIV-1 strains incl. Chinese clinical isolates. The method, then:
as §1

Series [14] has as its target HIV-1 reverse transcriptase (Human immunodeficiency virus type 1 group M subtype B, UniProt P04585). Description: ELISA RT assay for inhibition of HIV-1 reverse transcriptase activity.
Source text: Oligo(dT) 15 was immobilized via its 5'-terminal phosphate to Covalink-NH microtiter plates. The biotin-dUTP was incorporated by reverse transcriptase. The products were detected and quantified using a colorimetric strep- tavidin-alkaline phosphatase reporter system.
Briefly, Oligo(dT) 15 was immobilized via its 5'-terminal phosphate to CovaLink NH microtiter plates. The biotin-dUTP was incorporated by reverse transcriptase. The products were detected and quantified using a colorimetric streptavidin alkaline phosphatase reporter system.
Series [15] is described as follows: XTT cytotoxicity assay, summary over cells. It is filed as cell-based. As to conditions: human, human PBMCs (non-stimulated) and TZM-bl cells, MT4, PBMCs and TZM-bl cells, read-out: CC50, range. The method, then: as §3, §4
The subject of series [16] is MT4 cells. Briefly: XTT cytotoxicity assay. It is filed as cell-based. The method, then:
as §3, §4

The test system of series [17] is TZM-bl cells. Briefly: XTT cytotoxicity assay. It is filed as cell-based. The method, then:
as §3, §4
(In general: Tetrazolium dyes change colour on reduction, which living cells bring about.)

Where [18] appears, read: Human immunodeficiency virus 1, MT4.
[19] abbreviates: Human immunodeficiency virus 1, PBMC.
[20] abbreviates: Human immunodeficiency virus 1, TZM-bl.

In general, IC50 refers to the concentration that gives 50% inhibition. Consider `Cc1ccnc2c1NC(=O)c1cccnc1N2C1CC1` [NVP, nevirapine, reference compound], for which the IC50 in series [1] was 0.69 ± 0.07 µM; in series [2], 0.211 ± 0.12 µM; in [3] it was 0.007 ± 0.001 µM; in [4] (primary isolate XJ6291, subtype B'/C, R5, PBMCs, read-out: IC50), 0.186 ± 0.224 µM; in [5], 0.058 ± 0.06 µM; in [6] it was 0.079 ± 0.097 µM. In addition, the IC50 in series [7] was determined as 0.007 ± 0.003 µM; in series [8] (setting [18]), 0.44 ± 0.12 µM; in [8] (setting [19]), 0.57 ± 0.08 µM; in series [8] (setting [20]) it was 0.16 ± 0.1 µM; in [10], 0.19 ± 0.02 µM; in series [11], 0.65 ± 0.23 µM. Besides, in series [9], the “Antiviral activity in time-of-addition assay” value is reported as “demonstrated antiviral activity”.

The term CC50 denotes the concentration at which the toxic effect on the cells reaches its halfway point. As for `CCOCn1c2c(c(=O)[nH]c1=O)CCCCC2c1ccccc1` (stereo not drawn) [EPCP], the “SI (Selectivity index = CC50/IC50)” value is listed as 13.75 in series [10] and 3.9 in series [11]. For the same molecule, the IC50 is 1.6 µM in series [10] and 7.5 µM in series [11]. The CC50 at 3 days in [12] (MT4 cells) was 29.3 µM; in series [12] (TZM-bl cells), 22 µM.

Take Enfuvirtide [T20]: the “Inhibitory activity in time-of-addition assay” value in [9] (added one hour after viral infection, T-20 5 μM) is listed as “no inhibitory activity”.

Regarding `O=c1[nH]c(=O)n(Cc2ccccc2)c2c1CCCCC2c1ccccc1` (stereo not drawn) [BPCP], the entries for the “SI (Selectivity index = CC50/IC50)” value in series [10] and in [11] were 20 and 1.15, respectively. Further, the IC50 came to 9 µM in series [10] and 115 µM in [11]. The CC50 at 3 days was determined as 132 µM in [12] (MT4 cells) and 180 µM in series [12] (TZM-bl cells).

With `C=CCn1c2c(c(=O)[nH]c1=O)CCCCC2c1ccccc1` (stereo not drawn) [APCP], the “SI (Selectivity index = CC50/IC50)” value was determined as 38.46 in series [10] and 2.17 in [11]. Also, the IC50 in series [10] was 1.3 µM; in series [11] it was 28.6 µM. Further, the CC50 at 3 days in series [12] (MT4 cells) worked out at 62 µM; in series [12] (TZM-bl cells), 50 µM.

Consider `O=c1[nH]c(=O)n(COCc2ccccc2)c2c1CCCCC2c1ccccc1` (stereo not drawn) [BmPCP], for which the “SI (Selectivity index = CC50/IC50)” value is on record as 67 in [1]; 170 in series [2]; 282 in series [3]; 158 in [4] (primary isolate XJ6291, subtype B'/C, R5, PBMCs); 205 in series [5]; 361 in series [6]. For the same molecule, the “SI (Selectivity index = CC50/IC50)” value in [8] (1617-1/PBMCs) was found to be 65; in [8] (1617-1/TZM-bl), 62; in series [10] it was 266; in [11] it was 84. Moreover, the IC50 in [1] was found to be 1.72 ± 0.37 µM; in series [2] it was 0.53 ± 0.07 µM; in series [3], 0.32 ± 0.15 µM; in series [4] it was 0.57 ± 0.02 µM; in series [5], 0.44 ± 0.17 µM; in series [6], 0.25 ± 0.03 µM. Further, the IC50 was determined as 0.59 ± 0.34 µM in series [7]; 1.47 ± 0.43 µM in series [8] (setting [18]); 1.76 ± 0.23 µM in series [8] (setting [19]); 1.45 ± 0.21 µM in [8] (setting [20]); 1.51 µM in [14]; 0.34 µM in series [10]. The molecule further showed an IC50 in [11] of 1.96 µM. Further, the “IC50, level over HIV-1 strains” value in series [13] is “low μM levels”. Besides, the “Antiviral activity in time-of-addition assay” value in series [9] is “demonstrated antiviral activity”. For the same molecule, the CC50 at 3 days in [15] is 90 to 165 µM; in [12] (MT4 cells), 90.3 µM; in series [12] (PBMCs (non-stimulated), PBMC) it was 114 ± 9.38 µM; in series [12] (TZM-bl cells), 129 µM. Also, the CC90 at 3 days in series [12] (MT4 cells) was 383 ± 53.5 µM; in series [12] (PBMCs (non-stimulated), PBMC), 229 ± 6.4 µM; in series [12] (TZM-bl cells), 208 ± 8.69 µM. Also, the CC50 in series [16] was determined as 165 µM; in [17], 90.3 µM.
